What was measured:
RPMI-8226 tumors = experiment: RPMI-8226 multiple myeloma xenograft in NSG mice; type: in vivo, mouse
Description: (§1) RPMI-8226 human multiple myeloma cells (ATCC #CCL-155, Manassas, Va.) were maintained in RPMI-1640 (Lonza; Walkersville, Md.) supplemented with 10% Fetal Bovine Serum (FBS; Omega Scientific; Tarzana, Calif.) and 1% Penicillin/Streptomycin (Corning, Manassas, Va.) within a 5% CO2 atmosphere. Cultures were expanded in tissue culture flasks.
(§2) Female NSG (NOD-Cg-Prkdc^scidI12rg^tm1Wjl/SzJ) were obtained from Jackson Laboratory (Bar Harbor, Me.) at 5-6 weeks of age. Mice were acclimated prior to handling and housed in microisolator cages (Lab Products, Seaford, Del.) under specific pathogen-free conditions. Mice were fed Teklad Global Diet® 2920x irradiated laboratory animal diet (Envigo, Formerly Harlan; Indianapolis, Ind.) and provided autoclaved water ad libitum. All procedures were carried out under Institutional Animal Care and Use guidelines.
Female NSG mice were inoculated subcutaneously in the right flank with 0.1 mL of a 30% RPMI/70% Matrigel™ (BD Biosciences; Bedford, Mass.) mixture containing a suspension of 1×10^7 RPMI-8226 tumor cells.
(§3) The mean TS of each group was calculated and reported.
Differences in Day 48 tumor volumes were confirmed using a one-way ANOVA, unpaired, parametric with the Tukey's Multiple Comparison test with Welch's correction. […]

MM.1S tumors [1] = experiment: MM.1S multiple myeloma xenograft, combination with bortezomib; type: in vivo, mouse
Description: as §1, with “MM.1S” for “RPMI-8226”, “#CRL-2974,” for “#CCL-155,”
as §2, §3
All statistical analyses in the xenograft study were performed with Prism GraphPad® software.

MM.1S tumors [2] = experiment: MM.1S multiple myeloma xenograft, combination with daratumumab; type: in vivo, mouse
Procedure: as §1, with “The anti-tumor properties of a humanized anti-CD47 antibody (VLX9hum_06 IgG2) and in combination with anti-CD38 monoclonal antibody daratumumab which reduce tumor burden in a xenograft MM.1S multiple myeloma NSG mouse model were evaluated MM.1S” for “RPMI-8226”, “#CRL-2974,” for “#CCL-155,”
as §2
Female NSG mice were inoculated subcutaneously in the right flank with 0.1 mL of a 30% RPMI/70% Matrigel™ (BD Biosciences; Bedford, Mass.) mixture containing a suspension of 5×10^6 MM.1S tumor cells. […]
Mean tumor growth inhibition (TGI) was calculated at Day 20 utilizing the following formula. […]

OV90 tumors = experiment: OV90 ovarian carcinoma xenograft in NSG mice; type: in vivo, mouse; conditions: OV90, Day 52; antibody 10 mg/kg IP QD5×6, cisplatin 5 mg/kg, paclitaxel 20 mg/kg
Procedure: Female NSG mice (NOD-Cg-PrkdcscidI12rgtm1Wjl/SzJ, Jackson Laboratories) were inoculated subcutaneously in the right flank with 0.1 mL of a 30% RPMI/70% Matrigel™ (BD Biosciences; Bedford, Mass.) mixture containing a suspension of 5×10^6 OV90 ovarian carcinoma cells (ATCC). Digital calipers were used to measure width and length diameters of the tumor. Tumor volumes were calculated utilizing the formula: tumor volume (mm^3)=(a×b^2/2) where ‘b’ is the smallest diameter and ‘a’ is the largest diameter. Mice with palpable tumor volumes of 50-100 mm^3 were randomized into 10 mice/group. […] Tumor volumes and body weights were recorded twice weekly.

MM.1S tumors [3] = experiment: MM.1S xenograft in NOD-SCID mice, combination with lenalidomide or pomalidomide; type: in vivo, mouse; conditions: for complete tumor regression: N=9/group; for tumor growth inhibition (TGI): mAb 25 mg/kg IP weekly
Description: MM.1S human multiple myeloma cells (ATCC #CRL-2974, Manassas, Va.) were maintained in RPMI-1640 (Lonza; Walkersville, Md.) supplemented with 10% Fetal Bovine Serum (FBS; Omega Scientific; Tarzana, Calif.) and 1% Penicillin/Streptomycin (Corning, Manassas, Va.) within a 5% CO2 atmosphere. Cultures were expanded in tissue culture flasks. Female NOD-SCID (NOD.CB17-Prkdc^scid/J) mice were obtained from Jackson Laboratory (Bar Harbor, Me.) at 5-6 weeks of age. Mice were acclimated prior to handling and housed in microisolator cages (Lab Products, Seaford, Del.) under specific pathogen-free conditions. Mice were fed Teklad Global Diet® 2920x irradiated laboratory animal diet (Envigo, Formerly Harlan; Indianapolis, Ind.) and provided autoclaved water ad libitum. All procedures were carried out under Institutional Animal Care and Use guidelines.
Female NOD-SCID mice were inoculated subcutaneously in the right flank with 0.1 mL of a 50% RPMI-1640/50% Matrigel™ (BD Biosciences; Bedford, Mass.) mixture containing a suspension of 5×10^6 MM.1S tumor cells. When tumors reached volumes of approximately 50-100 mm^3, mice were randomized. The test articles, human IgG2 (hIgG2), anti-CD47 mAb (VLX9hum_06 IgG2) were administered by intraperitoneal (IP) injection and lenalidomide or pomalidomide (LC Labs, Woburn, Mass.) were administered by oral gavage (PO). hIgG2 (25 mg/kg) or an anti-CD47 mAb VLX9hum_06 IgG2 (25 mg/kg) were administered weekly for 5 weeks, while lenalidomide (25 mg/kg) or pomalidomide (10 mg/kg) were administered on 4 successive days, with 3 days off, weekly for 5 weeks.
Mean tumor growth inhibition (TGI) was calculated at Day 24 (the final day all mice were on study) utilizing the following formula.
All statistical analyses in the xenograft study were performed with Prism GraphPad® software. Differences in Day 24 tumor volumes were confirmed using a two-way ANOVA, unpaired, parametric with the Tukey's Multiple Comparison test with Welch's correction.

Jurkat T ALL cell line = experiment: ATP release; type: cell-based, human; conditions: mAb 10 μg/ml or mitoxantrone 1 μM, 24 hours
Procedure: Release of ATP from the tumor cell is determined by quantitative bioluminescence assay as described by the manufacturer (Molecular Probes; Catalogue #A22066).
The humanized antibodies (VLX4hum_01 IgG4PE, VLX4hum_07 IgG4PE, VLX8hum_11 IgG4PE, VLX9hum_06 IgG2, VLX9hum_08 IgG2 and VLX9hum_03) as disclosed herein, purified from transient transfections in CHO cells as described above, as well as the control chimeric antibody, were added at a final concentration of 10 μg/ml. As a positive control for ATP release, cells were treated with 1 μM of chemotherapeutic anthracycline mitoxantrone. The cells were incubated at 37° C. for 24 hours, after which the cell-free supernatant was collected and stored at −80° C. After all samples have been collected, 10 μl of each sample was tested by the ATP determination kit as described above. […] Results are presented as means SEM and analyzed for statistical significance using ANOVA in GraphPad Prism 6.

SNU-1 tumors = experiment: SNU-1 gastric carcinoma xenograft in NSG mice; type: in vivo, mouse; conditions: antibody 25 mg/kg IP Q7D×5, cisplatin 3 mg/kg Q7D×4
Procedure: Female NSG mice (NOD-Cg-PrkdcscidI12rgtm1Wjl/SzJ, Jackson Laboratories) were inoculated subcutaneously in the right flank with 0.1 mL of a 30% RPMI/70% Matrigel™ (BD Biosciences; Bedford, Mass.) mixture containing a suspension of 5×10^6 SNU-1 gastric carcinoma cells (ATCC). Eight days following inoculation, digital calipers were used to measure width and length diameters of the tumor. Tumor volumes were calculated utilizing the formula: tumor volume (mm^3)=(a×b^2/2) where ‘b’ is the smallest diameter and ‘a’ is the largest diameter. Mice with palpable tumor volumes of 50-100 mm^3 were randomized into 10 mice/group and administered anti-CD47 mAb VLX9hum_06 IgG2, cisplatin, control IgG2, or a combination of anti-CD47 mAb VLX9hum_06 IgG2 with cisplatin. Mice were treated with 25 mg/kg of antibody once a week for 5 weeks (Q7D×5) by intraperitoneal injection (IP) and/or with 3 mg/kg of cisplatin once weekly for 4 weeks (Q7D×4). Tumor volumes and body weights were recorded twice weekly.
Mean tumor growth inhibition (TGI) was calculated utilizing the following formula.
Significant differences in tumor volume were confirmed using a two-way ANOVA, unpaired, parametric with the Tukey's Multiple Comparison test.

Molecule: CC(C)C[C@H](NC(=O)[C@H](Cc1ccccc1)NC(=O)c1cnccn1)B(O)O [bortezomib]
- median survival (RPMI-8226 tumors; RPMI-8226, 1 mg/kg): 78 days
- tumor growth inhibition (TGI) (RPMI-8226 tumors; RPMI-8226, Day 48, 1 mg/kg IV Day 1, 4, 12): 96%
- median survival (MM.1S tumors [1]): 35 days
- tumor growth inhibition (TGI) (MM.1S tumors [1]; Day 20, mAb 25 mg/kg IP weekly, bortezomib 0.75 then 0.5 mg/kg IV): 91.8%

Molecule: daratumumab: anti-CD38 monoclonal antibody
- median survival (MM.1S tumors [2]): 29 days
- tumor growth inhibition (TGI) (MM.1S tumors [2]; Day 20, mAb 25 mg/kg weekly, daratumumab 15 mg/kg twice weekly): 54%

Molecule: CC(=O)O[C@H]1C(=O)[C@@]2(C)[C@H]([C@H](OC(=O)c3ccccc3)[C@]3(O)C[C@H](OC(=O)[C@H](O)[C@@H](NC(=O)c4ccccc4)c4ccccc4)C(C)=C1C3(C)C)[C@]1(OC(C)=O)CO[C@@H]1C[C@@H]2O [paclitaxel]
- tumor growth inhibition (TGI) (OV90 tumors): 32.1%

Molecule: Nc1cccc2c1CN(C1CCC(=O)NC1=O)C2=O (centres unmarked) [lenalidomide]
- complete tumor regression (MM.1S tumors [3]; FIG. 91A): no tumor regressions
- tumor growth inhibition (TGI) (MM.1S tumors [3]; day 24, FIG. 91A, lenalidomide 25 mg/kg PO): 48%

Molecule: Nc1cccc2c1C(=O)N(C1CCC(=O)NC1=O)C2=O (centres unmarked) [pomalidomide]
- complete tumor regression (MM.1S tumors [3]; FIG. 91B): no tumor regressions
- tumor growth inhibition (TGI) (MM.1S tumors [3]; day 24, FIG. 91B, pomalidomide 10 mg/kg PO): 23%

Molecule: O=C1c2c(O)ccc(O)c2C(=O)c2c(NCCNCCO)ccc(NCCNCCO)c21 [mitoxantrone]
- amount of released ATP (Jurkat T ALL cell line): did not (ns)

Molecule: N.N.[Cl][Pt][Cl] [cisplatin]
- tumor growth inhibition (TGI) (SNU-1 tumors): 39.7%
- tumor growth inhibition (TGI) (OV90 tumors): 53.1%

Source: patent US20220313819A1, “COMBINATION THERAPY FOR THE TREATMENT OF SOLID AND HEMATOLOGICAL CANCERS” (Arch Oncology, Inc., priority 2019, published 2022)
